Assays:
NCI-H1299 [1] = assay: Cytotoxicity against human H1299 cells assessed as reduction in cell viability; type: functional, cell-based
ASPC1 [2] = assay: Cytotoxicity against human AsPC1 cells assessed as reduction in cell viability; type: functional, cell-based
A549 [3] = assay: Cytotoxicity against human A549 cells assessed as cell viability at 100 uM relative to control; type: functional; settings: read-out: Activity
T47D [4] = assay: Cytotoxicity against human T47D cells assessed as cell viability at 100 uM relative to control; type: functional; settings: read-out: Activity
MCF7 [5] = assay: Cytotoxicity against human MCF7 cells assessed as cell viability at 100 uM relative to control; type: functional; settings: read-out: Activity
SW1990 [6] = assay: Cytotoxicity against human SW1990 cells assessed as cell viability at 100 uM relative to control; type: functional; settings: read-out: Activity
HCT-116 [7] = assay: Cytotoxicity against human HCT116 cells assessed as reduction in cell viability; type: functional, cell-based
CNE [8] = assay: Cytotoxicity against human CNE1 cells assessed as cell viability at 100 uM relative to control; type: functional; settings: read-out: Activity
MCF-10A = assay: Cytotoxicity against human MCF10A cells assessed as reduction in cell viability; type: cell-based
SUNE1 [9] = assay: Cytotoxicity against human SUNE1 cells assessed as reduction in cell viability; type: functional, cell-based
[10] = Cytotoxicity against human MCF10A cells assessed as cell viability at 100 uM relative to control; type: cell-based, MCF-10A; settings: read-out: Activity
[11] = Cytotoxicity against human HK1 cells assessed as reduction in cell viability; type: functional, cell-based; settings: HK-1
MDA-MB-231 [12] = assay: Cytotoxicity against human MDA-MB-231 cells assessed as reduction in cell viability; type: functional, cell-based
NCI-H1299 [13] = assay: Cytotoxicity against human H1299 cells assessed as cell viability at 100 uM relative to control; type: functional; settings: read-out: Activity
HT-29 [14] = assay: Cytotoxicity against human HT-29 cells assessed as reduction in cell viability; type: functional, cell-based
CNE [15] = assay: Cytotoxicity against human CNE1 cells assessed as reduction in cell viability; type: functional, cell-based
SK-BR-3 [16] = assay: Cytotoxicity against human SKBR3 cells assessed as cell viability at 100 uM relative to control; type: functional; settings: read-out: Activity
MDA-MB-231 [17] = assay: Cytotoxicity against human MDA-MB-231 cells assessed as cell viability at 100 uM relative to control; type: functional; settings: read-out: Activity
SUNE1 [18] = assay: Cytotoxicity against human SUNE1 cells assessed as cell viability at 100 uM relative to control; type: functional; settings: read-out: Activity
BXPC-3 [19] = assay: Cytotoxicity against human BxPC3 cells assessed as cell viability at 100 uM relative to control; type: functional; settings: read-out: Activity
SK-BR-3 [20] = assay: Cytotoxicity against human SKBR3 cells assessed as reduction in cell viability; type: functional, cell-based
Caco-2 [21] = assay: Cytotoxicity against human Caco2 cells assessed as reduction in cell viability; type: functional, cell-based
MRC5 = assay: Cytotoxicity against human MRC5 cells assessed as reduction in cell viability; type: cell-based
MDA-MB-468 [22] = assay: Cytotoxicity against human MDA-MB-468 cells assessed as cell viability at 100 uM relative to control; type: functional; settings: read-out: Activity
SH-SY5Y [23] = assay: Cytotoxicity against human SH-SY5Y cells assessed as reduction in cell viability; type: functional, cell-based
HT-29 [24] = assay: Cytotoxicity against human HT-29 cells assessed as cell viability at 100 uM relative to control; type: functional; settings: read-out: Activity
SW1990 [25] = assay: Cytotoxicity against human SW1990 cells assessed as reduction in cell viability; type: functional, cell-based
ASPC1 [26] = assay: Cytotoxicity against human AsPC1 cells assessed as cell viability at 100 uM relative to control; type: functional; settings: read-out: Activity
BXPC-3 [27] = assay: Cytotoxicity against human BxPC3 cells assessed as reduction in cell viability; type: functional, cell-based
A549 [28] = assay: Cytotoxicity against human A549 cells assessed as reduction in cell viability; type: functional, cell-based
SW48 [29] = assay: Cytotoxicity against human SW48 cells assessed as reduction in cell viability; type: functional, cell-based
T47D [30] = assay: Cytotoxicity against human T47D cells assessed as reduction in cell viability; type: functional, cell-based
MCF7 [31] = assay: Cytotoxicity against human MCF7 cells assessed as reduction in cell viability; type: functional, cell-based
SH-SY5Y [32] = assay: Cytotoxicity against human SH-SY5Y cells assessed as cell viability at 100 uM relative to control; type: functional; settings: read-out: Activity
SW48 [33] = assay: Cytotoxicity against human SW48 cells assessed as cell viability at 100 uM relative to control; type: functional; settings: read-out: Activity
MDA-MB-468 [34] = assay: Cytotoxicity against human MDA-MB-468 cells assessed as reduction in cell viability; type: functional, cell-based
Caco-2 [35] = assay: Cytotoxicity against human Caco2 cells assessed as cell viability at 100 uM relative to control; type: functional; settings: read-out: Activity
[36] = Cytotoxicity against human HK1 cells assessed as cell viability at 100 uM relative to control; type: functional; settings: HK-1, read-out: Activity
HCT-116 [37] = assay: Cytotoxicity against human HCT116 cells assessed as cell viability at 100 uM relative to control; type: functional; settings: read-out: Activity
[38] = Cytotoxicity against human MRC5 cells assessed as cell viability at 100 uM relative to control; type: cell-based; settings: read-out: Activity

Row | SMILES | IC50 (NCI-H1299 [1]) [µM] | IC50 (ASPC1 [2]) [µM] | viability at 100 µM (A549 [3]) [%] | viability at 100 µM (T47D [4]) [%] | viability at 100 µM (MCF7 [5]) [%] | viability at 100 µM (SW1990 [6]) [%] | IC50 (HCT-116 [7]) [µM] | viability at 100 µM (CNE [8]) [%] | IC50 (MCF-10A) [µM] | IC50 (SUNE1 [9]) [µM] | viability at 100 µM [10] [%] | IC50 [11] [µM] | IC50 (MDA-MB-231 [12]) [µM] | viability at 100 µM (NCI-H1299 [13]) [%] | IC50 (HT-29 [14]) [µM] | IC50 (CNE [15]) [µM] | viability at 100 µM (SK-BR-3 [16]) [%] | viability at 100 µM (MDA-MB-231 [17]) [%] | viability at 100 µM (SUNE1 [18]) [%] | viability at 100 µM (BXPC-3 [19]) [%] | other results
1 | O=[N+]([O-])c1ccc(NC(CCl)CCl)cc1C(F)(F)F | > 100 | > 100 | 27.8 | 33.2 | 20.5 | 36.7 | 83.8 | 32.6 | > 100 | 93.1 | 59.7 | > 100 | > 100 | 43.7 | 63.1 | 33.2 | 52.7 | 57.4 | 44.9 | 56.5 | IC50 (SK-BR-3 [20]): > 100 µM; IC50 (Caco-2 [21]): 37.1 µM; IC50 (MRC5): 33.9 µM; viability at 100 µM (MDA-MB-468 [22]): 58.6%; IC50 (SH-SY5Y [23]): 56.4 µM; viability at 100 µM (HT-29 [24]): 38.4%; IC50 (SW1990 [25]): 55.8 µM; viability at 100 µM (ASPC1 [26]): 58.7%; IC50 (BXPC-3 [27]): > 100 µM; IC50 (A549 [28]): 70.4 µM; IC50 (SW48 [29]): 43.4 µM; IC50 (T47D [30]): 64.1 µM; IC50 (MCF7 [31]): 33.1 µM; viability at 100 µM (SH-SY5Y [32]): 30.6%; viability at 100 µM (SW48 [33]): 29.1%; IC50 (MDA-MB-468 [34]): > 100 µM; viability at 100 µM (Caco-2 [35]): 20.9%; viability at 100 µM [36]: 59.7%; viability at 100 µM (HCT-116 [37]): 45%; viability at 100 µM [38]: 22.1%
2 | O=[N+]([O-])c1ccc(NC(CO)CO)cc1 | > 100 | > 100 | 96.7 | 73.6 | 65.6 | 87.5 | > 100 | 104 | > 100 | > 100 | 103 | > 100 | > 100 | 92.7 | > 100 | > 100 | 93.1 | 87.7 | 109 | 100 | IC50 (SK-BR-3 [20]): > 100 µM; IC50 (Caco-2 [21]): > 100 µM; IC50 (MRC5): 60.2 µM; viability at 100 µM (MDA-MB-468 [22]): 102%; IC50 (SH-SY5Y [23]): > 100 µM; viability at 100 µM (HT-29 [24]): 96.3%; IC50 (SW1990 [25]): > 100 µM; viability at 100 µM (ASPC1 [26]): 96.4%; IC50 (BXPC-3 [27]): > 100 µM; IC50 (A549 [28]): > 100 µM; IC50 (SW48 [29]): > 100 µM; IC50 (T47D [30]): > 100 µM; IC50 (MCF7 [31]): > 100 µM; viability at 100 µM (SH-SY5Y [32]): 99.9%; viability at 100 µM (SW48 [33]): 95.3%; IC50 (MDA-MB-468 [34]): > 100 µM; viability at 100 µM (Caco-2 [35]): 101%; viability at 100 µM [36]: 99.6%; viability at 100 µM (HCT-116 [37]): 89.7%; viability at 100 µM [38]: 32.2%
